Measurements: patent US5312817A, “Treatment of fatigue syndrome” (priority 1991, dated 1994)
Where a name gives a salt, the structure may show the parent alone. Read-outs that look alike come from different tables or passages of the source.

Assays:
[1] = tested on: cholinesterase in hemolyzed whole blood (hemolysate); test: Sigma Diagnostics Cholinesterase (PTC) kit, hemolysate of patient blood samples; assay type: biochemical, human; conditions: for Hemolysate ChE activity: no addition = 1.00, blood samples from 3 patients
Text: (§1) HChE=(EChE×Hct*)+(PChE×(1--Hct*))
By doing this, the values are obtained directly.
The results are shown below in table 1.1.

[2] = target: butyrylcholinesterase (pseudocholinesterase) in serum (Homo sapiens, UniProt P06276); conditions: for Serum ChE activity: no addition = 1.00, blood samples from 3 patients
Text: SIGMA DIAGNOSTICS® CHOLINESTERASE (PTC) kit, available from Sigma Diagnostics, can be used for determining the activity and selectivity of cholinesterase inhibitors. In the following, it is illustrated how the kit is used for the determination of the activity and selectivity of Nivalin (Galanthamine hydrobromide).
Reactions involved in the cholinesterase assay are as follows: [drawing 3]
Thiocholine+5,5'-Dithiobis-2-Nitrobenzoic Acid→5-Thio-2-NitrobenzoicAcid
5-Thio-2-Nitrobenzoic Acid is assessed by measuring the absorbance at 405 nm. The rate of change in absorbance at 405 nm is directly proportional to cholinesterase activity.
The activity of erythrocyte cholinesterase may be calculated on the basis of the measurement of butyrylcholinesterase (pseudocholinesterase) in serum and cholinesterase in hemolyzed whole blood (hemolysate), both measured simultaneously by the method described above, and evaluated according to the hematocrit value according to the formula
as §1
In the above formulae, EChE is erythrocyte cholinesterase activity, PChE is plasma cholinesterase activity, HChE is hemolysate cholinesterase activity, and Hct is hematocrit value of the sample.
Another way of assessing the cholinesterase activity is to measure the plasma cholinesterase and the cholinesterase in purified hemolyzed erythrocytes. By doing this, the values are obtained directly.
Blood samples from 3 patients were tested with the Sigma test. The tests were carried out with samples where no Nivalin was added and with samples where 1.25 μg/ml Nivalin and 2.5 μg/ml were added in vitro.

[3] = tested on: acetylcholinesterase as opposed to butyrylcholinesterase; conditions: in vitro method by Thomsen et al.; hydrobromide; cited from earlier work
[4] = cited from earlier work

Sequence of butyrylcholinesterase (pseudocholinesterase) in serum (P06276 29-602): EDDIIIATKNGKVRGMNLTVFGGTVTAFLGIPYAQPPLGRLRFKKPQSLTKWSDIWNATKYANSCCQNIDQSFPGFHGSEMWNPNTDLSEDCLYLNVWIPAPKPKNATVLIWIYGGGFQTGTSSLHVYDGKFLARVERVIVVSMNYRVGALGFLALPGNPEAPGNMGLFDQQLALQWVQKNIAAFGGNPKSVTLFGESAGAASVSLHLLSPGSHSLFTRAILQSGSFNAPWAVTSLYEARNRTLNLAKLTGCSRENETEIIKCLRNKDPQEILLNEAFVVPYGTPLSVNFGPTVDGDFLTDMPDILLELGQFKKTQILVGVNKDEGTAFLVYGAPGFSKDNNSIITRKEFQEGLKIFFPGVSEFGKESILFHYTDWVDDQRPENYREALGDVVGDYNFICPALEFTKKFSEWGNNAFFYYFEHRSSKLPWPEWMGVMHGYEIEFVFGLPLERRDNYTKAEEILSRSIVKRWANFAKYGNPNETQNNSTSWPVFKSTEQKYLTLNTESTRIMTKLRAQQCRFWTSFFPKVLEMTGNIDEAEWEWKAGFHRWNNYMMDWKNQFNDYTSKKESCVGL

SMILES: COc1ccc2c3c1O[C@H]1C[C@@H](O)C=C[C@@]31CCN(C)C2 [galanthamine hydrobromide, Galanthamine hydrobromide]
- Hemolysate ChE activity ([1]; 1.25 μg/ml added in vitro): 0.96
- Hemolysate ChE activity ([1]; 2.50 μg/ml added in vitro): 0.86
- change of hemolysate cholinesterase activity with increased concentration ([1]; in words): significant reduction
- Serum ChE activity ([2]; 1.25 μg/ml added in vitro): 0.98
- Serum ChE activity ([2]; 2.50 μg/ml added in vitro): 0.97
- change of serum cholinesterase activity on addition ([2]; in words): do not show any statistically significant change
- selectivity for acetylcholinesterase as opposed to butyrylcholinesterase [3]: 50 fold
- elimination half life ([4]; in vivo): over four
- absorption from the gut ([4]; in words): absorbed rapidly from the gut
- passage of the blood brain barrier ([4]; in words): transverses the blood brain barrier easily
- renal elimination ([4]; in words): practically complete renal elimination
